One data set deals with young adult Wistar rats. As to conditions: intraperitoneal.
The conditions of data set [1]: in vivo, cited from earlier work.
Data set [2] in a line: Mean Equivalent Daily Dose (MEDD) conversion table for opioids. Format: in vivo.
The test system of the next data set is human volunteers. In words: Human drug liking study. To be noted: any dose of oxycodone alone vs same dose combined with 100 mg flupirtine, oral capsule.

Values joined by “and” are separate entries in the source; they are usually repeats but may differ in a detail not shown here. Equal entries are not always repeated. Where two headings read alike, the source gives them in different places.

Regarding `CCOC(=O)Nc1ccc(NCc2ccc(F)cc2)nc1N` [flupirtine], the sedation result in the data set with young adult Wistar rats (10 mg/kg flupirtine, criteria of Goodchild et al. 2008) is “non-sedating”; with young adult Wistar rats (20 mg/kg flupirtine, criteria of Goodchild et al. 2008), “sedating”.

In the case of `COc1cccc(C2(O)CCCCC2CN(C)C)c1` (stereo not drawn) [Tramadol], the MEDD-Factor in data set [1] (po) is 0.05; in data set [1] (sc), 0.1.

For the molecule `CN1CC[C@]23c4c5ccc(O)c4O[C@H]2[C@@H](O)C=C[C@H]3[C@H]1C5` [Morphine], the figures for the MEDD-Factor in data set [1] (iv), in data set [1] (po) and in data set [1] (sc) were 1, 0.4 and 1, respectively. Besides, the sedation entry with young adult Wistar rats (1.6 mg/kg morphine) is on record as “not sedating”. The “dose equivalent to a 100 mg dose of morphine administered orally” value in data set [2] (administered intravenously) is listed as 40 mg.

On to `COc1ccc2c3c1O[C@H]1C(=O)CC[C@@]4(O)[C@@H](C2)N(C)CC[C@]314` [Oxycodone], for which the MEDD-Factor is 0.63 in data set [1] (po) and 1.5 in data set [1] (sc). Besides, in the data set on human volunteers, the “subject preference (drug liking)” value is “preferred to, or no less preferred to”. In addition, the “dose equivalent to a 100 mg dose of morphine administered orally” value in data set [2] (orally administered) came out at 63 mg.

For `CC(=O)Oc1ccc2c3c1O[C@H]1[C@@H](OC(C)=O)C=C[C@H]4[C@@H](C2)N(C)CC[C@@]341` [Diamorphine], the MEDD-Factor in data set [1] (po) is recorded as 0.65; in data set [1] (sc), 1.3.

With `COc1ccc2c3c1O[C@H]1C(=O)CC[C@H]4[C@@H](C2)N(C)CC[C@]314` [Hydrocodone], the MEDD-Factor in data set [1] (po) is reported as 0.4.

`COc1ccc2c3c1O[C@H]1[C@@H](O)C=C[C@H]4[C@@H](C2)N(C)CC[C@@]341` [Codeine]: the MEDD-Factor in data set [1] (po) was 0.05; in data set [1] (sc) it was 0.1; in data set [1], 0.1 and 0.05.

`CCC(=O)C(CC(C)N(C)C)(c1ccccc1)c1ccccc1` (stereo not drawn) [Methadone]: the values for the MEDD-Factor in data set [1] (iv), in data set [1] (po) and in data set [1] (sc) were 8, 4 and 8, respectively.

With `CCOC(=O)C1(c2ccccc2)CCN(C)CC1` [Meperidine], the MEDD-Factor in data set [1] (iv) is 0.1; in data set [1] (po), 0.05; in data set [1] (sc) it was 0.1.

As for `CN1CC[C@]23CCCC[C@H]2[C@H]1Cc1ccc(O)cc13` [Levo-dromoran], the MEDD-Factor in data set [1] (sc) is on record as 5; in data set [1] it was 0.25.

Source of the values: US20120059024A1 (priority 2009, published 2012).
